# Values of other authors, collected in US10015963B2, “Microemulsions of lipidated glycines and phenoxy ethanol for preservation of personal care products” (GALAXY SURFACTANTS LTD., priority 2014, dated 2018).
# Key:
# [1] = at room temperature
# [2] = carboxyl group
pKa [2],Structure (SMILES),phenoxy ethanol solubilized in water [1]
,"OCCOc1ccccc1 [phenoxy ethanol, 2-phenoxy ethanol]",2.3%
4.05,"CCCCCCCC(=O)NCC(=O)O [capryloyl glycine, N-capryloyl glycine]",
